From PubChem BioAssay AID1919000 (Molecular Pharmacology Branch, DTP, NCI, 2023)

Test system: 653999-131-R-J2-PDC complex spheroids, growth % test/control
Assay: Anticancer human tumor 653999-131-R-J2-PDC patient-derived lung adenocarcinoma cell line growth inhibition [AhR]
Details: for IC50: curve of first compound; for viability, T/C: stronger effect = lower value
Description: Multicellular complex tumor spheroid response to aryl hydrocarbon receptor antagonists in combination with a variety of drugs and investigational agents in selected tumor cell lines
The current study was undertaken to assess response to aryl hydrocarbon receptor antagonists in combination with standard-of-care drugs and investigational agents in solid tumor complex spheroid models. Complex spheroids include a stromal component modeled by human endothelial cells (HUVEC) and fibroblasts modeled by human mesenchymal stem cells (MSCs). The concentration ranges selected for each drug and investigational agent were based upon clinically achievable concentrations if the clinical Cmax of the agent was known.
Compounds. The drugs and investigational agents: BAY 2416964 (NSC825713), GNF351 (NSC835774), CH-223191 (NSC835775), CPI-455 (NSC825282), aza-TdCyd (NSC777586), decitabine (NSC127716), belinostat (NSC758774), entinostat (NSC756642), pevonedistat (NSC761192), tazemetostat (NSC777109), talazoparib (NSC765396), olaparib (NSC753686), selinexor (NSC780203), nedisertib (M3814, NSC802822), bortezomib (NSC756655), venetoclax (NSC766270), doxorubicin (NSC123127), elimusertib (BAY189344, NSC800525), ceralasertib (AZD6738, NSC777638), TAK-243 (NSC785004), alisertib (NSC759677), etoposide (NSC141540), topotecan (NSC609699), eribulin (NSC707389), gemcitabine (NSC613327), carboplatin (NSC241240), cisplatin (NSC119875), and SN-38 (NSC673596) were obtained from the National Cancer Institute (NCI) Developmental Therapeutics Program Chemical Repository (32). The FDA-approved anticancer drug set is available from the Developmental Therapeutics Program at https://dtp.cancer.gov/organization/dscb/obtaining/available plates.htm. […] The stock solutions were prepared in dimethyl sulfoxide (DMSO, Sigma-Aldrich, St. Louis, MO, cat. D2650), except for the platinum compounds which were prepared in saline (Quality Biological, Gaithersburg, MD, cat. 114-055-101), at 800-fold the tested concentration and stored at -70 degrees C prior to their use. All drugs and investigational agents were tested over a range starting from a high concentration at or near the clinical Cmax and decreasing in half-log increments. If the clinical Cmax for an agent had not been determined, the highest concentration tested was 10 microM (Table 1).
Cell Culture. All cells were maintained in an incubator at 37 degrees C and 5% CO2 with 95% humidity. The PDC lines were cultured according to standard operating procedures established by the NCI PDMR (https://pdmr.cancer.gov). Briefly, all PDCs were thawed and cultured in Matrigel-coated flasks prepared with a working solution of 1X Ham's F-12 nutrient mix, without supplementation (Invitrogen, Waltham, MA, cat. 11765054), 100 U/mL penicillin-streptomycin (Invitrogen, cat. 15140122), and 2.5% Matrigel (Corning Inc., Corning, NY, cat. 354248) for the first three passages. All PDCs were cultured in complete DMEM/F-12 media containing advanced DMEM/F-12 (Invitrogen, cat. 12634028), 4.9% defined fetal bovine serum, heat inactivated (HyClone Laboratories Inc., Logan, UT, cat. SH30070.03HI), 389 ng/mL hydrocortisone (Sigma-Aldrich, cat. H4001), 9.7 ng/mL human EGF recombinant protein (Invitrogen, cat. PHG0313), 23.4 microg/mL adenine (Sigma-Aldrich, cat. A2786), 97.3 U/mL penicillin-streptomycin (Invitrogen, cat. 15140122), 1.9 mM L-glutamine (Invitrogen, cat. 25030081), and 9.7 microM Y-27632 dihydrochloride (Tocris Bioscience, Bristol, United Kingdom, cat. 1254). The PDCs were cultured in complete DMEM/F12 media without 10 microM Y-27632 dihydrochloride for at least two passages prior to the screen. The established cell lines NCI-H1341 and […] were cultured in DMEM/F-12, HEPES (Invitrogen, cat. 11330032), 5% defined fetal bovine serum (HyClone Laboratories Inc., cat. SH30070.03), ITS premix universal culture supplement [insulin (5 microg/mL), transferrin (5 microg/mL), and selenious acid (5 ng/mL)] […]
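Also: spheroids exposed to agents for seven days.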

Molecule `CC(C)c1c(-c2ccccc2)nc2c(C#N)c[nH]n2c1=O` + Cc1ccccc1N=Nc1ccc(NC(=O)c2ccnn2C)c(C)c1 has an IC50 (second compound 0.1 µM) of over 10 µM, an IC50 (second compound 0.316 µM) of over 10 µM and an IC50 (second compound 1 µM) of over 10 µM. For the same molecule, the IC50 (second compound 3.16 µM) was over 10 µM, the IC50 (second compound 10 µM) was over 10 µM and the viability, T/C (second compound 0.1 µM, first compound 0.0316 µM) was 97.4%. The viability, T/C (second compound 0.1 µM, first compound 0.1 µM) was 101%, the viability, T/C (second compound 0.1 µM, first compound 0.316 µM) was 107% and the viability, T/C (second compound 0.1 µM, first compound 1 µM) was 95.6%. It also gave a viability, T/C (second compound 0.1 µM, first compound 3.16 µM) of 98.5%, a viability, T/C (second compound 0.1 µM, first compound 10 µM) of 99.1% and a viability, T/C (second compound 0.316 µM, first compound 0.0316 µM) of 96.5%. It also gave a viability, T/C (second compound 0.316 µM, first compound 0.1 µM) of 105%, a viability, T/C (second compound 0.316 µM, first compound 0.316 µM) of 103% and a viability, T/C (second compound 0.316 µM, first compound 1 µM) of 98.9%. The viability, T/C (second compound 0.316 µM, first compound 3.16 µM) was 98.2%, the viability, T/C (second compound 0.316 µM, first compound 10 µM) was 111% and the viability, T/C (second compound 1 µM, first compound 0.0316 µM) was 106%. For the same molecule, the viability, T/C (second compound 1 µM, first compound 0.1 µM) was 126%, the viability, T/C (second compound 1 µM, first compound 0.316 µM) was 108% and the viability, T/C (second compound 1 µM, first compound 1 µM) was 105%. The viability, T/C (second compound 1 µM, first compound 3.16 µM) was 109%, the viability, T/C (second compound 1 µM, first compound 10 µM) was 104% and the viability, T/C (second compound 3.16 µM, first compound 0.0316 µM) was 99.4%. The viability, T/C (second compound 3.16 µM, first compound 0.1 µM) was 115%, the viability, T/C (second compound 3.16 µM, first compound 0.316 µM) was 107% and the viability, T/C (second compound 3.16 µM, first compound 1 µM) was 92.8%. The viability, T/C (second compound 3.16 µM, first compound 3.16 µM) was 90.3%, the viability, T/C (second compound 3.16 µM, first compound 10 µM) was 105% and the viability, T/C (second compound 10 µM, first compound 0.0316 µM) was 97.5%. The viability, T/C (second compound 10 µM, first compound 0.1 µM) was 105%, the viability, T/C (second compound 10 µM, first compound 0.316 µM) was 111% and the viability, T/C (second compound 10 µM, first compound 1 µM) was 92.7%. For the same molecule, the viability, T/C (second compound 10 µM, first compound 3.16 µM) was 107% and the viability, T/C (second compound 10 µM, first compound 10 µM) was 108%.

`Nc1ncn(C2CC(O)C(CO)S2)c(=O)n1` (stereo not given) + CC(CO)NC(=O)c1cc(-c2ccc(Cl)cc2)nn(-c2cnn(C)c2)c1=O was tested, and the IC50 (second compound 0.1 µM) was over 0.3 µM, the IC50 (second compound 0.316 µM) was over 0.3 µM and the IC50 (second compound 1 µM) was over 0.3 µM. For the same molecule, the IC50 (second compound 3.16 µM) was over 0.3 µM, the IC50 (second compound 10 µM) was over 0.3 µM and the viability, T/C (second compound 0.1 µM, first compound 0.000949 µM) was 101%. For the same molecule, the viability, T/C (second compound 0.1 µM, first compound 0.003 µM) was 117%, the viability, T/C (second compound 0.1 µM, first compound 0.00949 µM) was 111% and the viability, T/C (second compound 0.1 µM, first compound 0.03 µM) was 103%. The viability, T/C (second compound 0.1 µM, first compound 0.0949 µM) was 97.3%, the viability, T/C (second compound 0.1 µM, first compound 0.3 µM) was 84.8% and the viability, T/C (second compound 0.316 µM, first compound 0.000949 µM) was 106%. It also gave a viability, T/C (second compound 0.316 µM, first compound 0.003 µM) of 121%, a viability, T/C (second compound 0.316 µM, first compound 0.00949 µM) of 134% and a viability, T/C (second compound 0.316 µM, first compound 0.03 µM) of 100%. The viability, T/C (second compound 0.316 µM, first compound 0.0949 µM) was 104%, the viability, T/C (second compound 0.316 µM, first compound 0.3 µM) was 88.1% and the viability, T/C (second compound 1 µM, first compound 0.000949 µM) was 119%. It also gave a viability, T/C (second compound 1 µM, first compound 0.003 µM) of 115%, a viability, T/C (second compound 1 µM, first compound 0.00949 µM) of 110% and a viability, T/C (second compound 1 µM, first compound 0.03 µM) of 103%. The viability, T/C (second compound 1 µM, first compound 0.0949 µM) was 110%, the viability, T/C (second compound 1 µM, first compound 0.3 µM) was 84% and the viability, T/C (second compound 3.16 µM, first compound 0.000949 µM) was 121%. It also gave a viability, T/C (second compound 3.16 µM, first compound 0.003 µM) of 101%, a viability, T/C (second compound 3.16 µM, first compound 0.00949 µM) of 104% and a viability, T/C (second compound 3.16 µM, first compound 0.03 µM) of 121%. For the same molecule, the viability, T/C (second compound 3.16 µM, first compound 0.0949 µM) was 101%, the viability, T/C (second compound 3.16 µM, first compound 0.3 µM) was 96.4% and the viability, T/C (second compound 10 µM, first compound 0.000949 µM) was 117%. The viability, T/C (second compound 10 µM, first compound 0.003 µM) was 120%, the viability, T/C (second compound 10 µM, first compound 0.00949 µM) was 127% and the viability, T/C (second compound 10 µM, first compound 0.03 µM) was 127%. The viability, T/C (second compound 10 µM, first compound 0.0949 µM) was 116% and the viability, T/C (second compound 10 µM, first compound 0.3 µM) was 103%.
